PMC2761990 (Molecular cancer therapeutics, 2009)

What was measured:
[1] = system: panel of 60 protein kinases; conditions: cited from earlier work
AKT T308 phosphorylation = assay: Radiation-induced AKT T308 phosphorylation; type: cell-based; conditions: Fig. S1B
[2] = system: (S9) GSK3β phosphorylation; type: cell-based; conditions: in vivo and in vitro (Fig. S1C, D)
[3] = system: p53 (S15) phosphorylation; assay: IR-induced p53; type: cell-based, human; conditions: for inhibition of IR-induced p53 (S15) phosphorylation: 1 h after IR
[4] = system: (S136) BAD phosphorylation; type: cell-based; conditions: in vivo and in vitro (Fig. S1C, D)
γ-H2AX (S139) = assay: IR-induced H2AX; type: cell-based, human; conditions: for γ-H2AX levels: 10 Gy
p53 phosphorylation = assay: IR-induced p53 phosphorylation, western blot, U1242 cells; type: cell-based, human; conditions: U1242, 3 μM, 5 Gy
PI3K (p120γ) = PI3K (p120γ) (Homo sapiens, UniProt P48736); assay: PI3-Kinase HTRF assay; type: biochemical; conditions: read-out: PI3K (p120γ) inhibited
Sequence of PI3K (p120γ) (P48736 whole entry): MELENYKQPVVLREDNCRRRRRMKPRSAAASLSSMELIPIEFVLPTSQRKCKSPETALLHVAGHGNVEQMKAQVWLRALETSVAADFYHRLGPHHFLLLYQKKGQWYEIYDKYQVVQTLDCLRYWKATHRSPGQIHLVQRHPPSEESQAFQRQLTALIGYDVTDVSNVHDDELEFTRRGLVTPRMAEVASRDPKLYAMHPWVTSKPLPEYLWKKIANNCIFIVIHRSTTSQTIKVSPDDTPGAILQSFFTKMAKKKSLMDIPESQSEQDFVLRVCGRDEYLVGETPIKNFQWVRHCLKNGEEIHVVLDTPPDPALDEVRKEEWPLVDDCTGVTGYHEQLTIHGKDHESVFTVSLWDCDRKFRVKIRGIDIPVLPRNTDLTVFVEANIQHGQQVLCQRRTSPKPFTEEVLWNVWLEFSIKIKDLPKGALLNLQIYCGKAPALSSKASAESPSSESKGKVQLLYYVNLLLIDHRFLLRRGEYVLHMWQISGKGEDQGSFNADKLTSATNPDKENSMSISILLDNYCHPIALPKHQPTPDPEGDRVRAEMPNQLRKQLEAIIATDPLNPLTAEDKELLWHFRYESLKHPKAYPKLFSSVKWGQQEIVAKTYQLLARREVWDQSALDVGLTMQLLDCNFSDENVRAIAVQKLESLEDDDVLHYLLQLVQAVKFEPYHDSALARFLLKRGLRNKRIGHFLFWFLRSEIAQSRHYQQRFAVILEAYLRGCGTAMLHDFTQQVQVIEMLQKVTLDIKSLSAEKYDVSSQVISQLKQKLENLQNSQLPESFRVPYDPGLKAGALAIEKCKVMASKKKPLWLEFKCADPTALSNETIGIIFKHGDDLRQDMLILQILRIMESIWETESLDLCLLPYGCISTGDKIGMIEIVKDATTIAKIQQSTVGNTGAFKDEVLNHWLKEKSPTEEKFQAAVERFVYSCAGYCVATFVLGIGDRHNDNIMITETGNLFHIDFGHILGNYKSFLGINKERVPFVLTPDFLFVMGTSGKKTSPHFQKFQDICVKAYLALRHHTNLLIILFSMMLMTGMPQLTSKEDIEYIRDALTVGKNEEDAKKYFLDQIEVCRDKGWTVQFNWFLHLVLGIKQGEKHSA

mTOR = mTOR (Homo sapiens, UniProt P42345); assay: Millipore KinaseProfiler, mTOR; type: biochemical; conditions: 1 μM
U1242 cells [5] = assay: Radiosurvival, Trypan blue/FACS assay, U1242; type: cell-based, human
[6] = system: CHK2 phosphorylation (T68); assay: IR-induced CHK2; type: cell-based, human; conditions: U1242, 3 μM, 5 Gy, up to 1 h after irradiation
[7] = system: AKT (S473) phosphorylation; assay: Insulin-stimulated AKT phosphorylation, normal fibroblasts; type: cell-based, human; conditions: NFs
U87 cells [8] = assay: Invasion through matrigel, U87; type: cell-based; conditions: Homo sapiens, U-87 MG, 48 h, read-out: inhibition of invasion through matrigel
U87 cells [9] = assay: Migration assay through 8 μm pore membranes, U87; type: cell-based; conditions: Homo sapiens, U-87 MG, 6 h, read-out: inhibition of migration
[10] = system: AKT (S473) phosphorylation; assay: AKT; type: cell-based, human; conditions: U1242, 3 μM, 5 Gy
PI3K (p110β/p85α) = PI3K (p110β/p85α) (Homo sapiens, UniProt P42338); assay: PI3-Kinase HTRF assay; type: biochemical; conditions: read-out: PI3K (p110β/p85α) inhibited
Sequence of PI3K (p110β/p85α) (P42338 whole entry): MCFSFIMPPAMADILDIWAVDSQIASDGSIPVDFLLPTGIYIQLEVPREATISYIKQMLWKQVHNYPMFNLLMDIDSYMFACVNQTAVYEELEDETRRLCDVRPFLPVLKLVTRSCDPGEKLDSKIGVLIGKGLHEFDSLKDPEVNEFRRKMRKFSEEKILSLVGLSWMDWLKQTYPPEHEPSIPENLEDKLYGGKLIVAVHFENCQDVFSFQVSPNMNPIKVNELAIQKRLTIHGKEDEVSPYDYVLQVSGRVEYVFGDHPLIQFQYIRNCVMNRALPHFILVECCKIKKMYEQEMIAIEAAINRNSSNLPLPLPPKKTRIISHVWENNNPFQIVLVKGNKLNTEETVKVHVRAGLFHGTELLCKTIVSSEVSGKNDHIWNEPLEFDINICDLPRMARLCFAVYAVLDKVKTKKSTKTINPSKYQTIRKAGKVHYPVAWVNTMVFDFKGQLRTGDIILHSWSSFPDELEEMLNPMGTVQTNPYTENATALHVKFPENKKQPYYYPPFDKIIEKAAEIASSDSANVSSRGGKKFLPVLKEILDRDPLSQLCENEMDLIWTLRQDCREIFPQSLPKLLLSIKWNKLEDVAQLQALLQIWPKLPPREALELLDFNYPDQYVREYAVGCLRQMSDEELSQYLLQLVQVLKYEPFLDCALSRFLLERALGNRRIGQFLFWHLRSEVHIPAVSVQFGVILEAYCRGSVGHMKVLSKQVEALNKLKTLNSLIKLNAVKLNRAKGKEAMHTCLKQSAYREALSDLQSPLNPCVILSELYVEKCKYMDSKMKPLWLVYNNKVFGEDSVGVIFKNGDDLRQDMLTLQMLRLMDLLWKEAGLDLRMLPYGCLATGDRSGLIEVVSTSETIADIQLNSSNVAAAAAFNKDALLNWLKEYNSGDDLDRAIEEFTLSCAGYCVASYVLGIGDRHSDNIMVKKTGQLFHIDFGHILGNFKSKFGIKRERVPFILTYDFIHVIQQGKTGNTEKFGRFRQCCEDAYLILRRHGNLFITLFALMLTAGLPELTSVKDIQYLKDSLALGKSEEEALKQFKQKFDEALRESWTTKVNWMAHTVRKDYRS
Sequence of PI3K (p110β/p85α) (P27986 whole entry partner): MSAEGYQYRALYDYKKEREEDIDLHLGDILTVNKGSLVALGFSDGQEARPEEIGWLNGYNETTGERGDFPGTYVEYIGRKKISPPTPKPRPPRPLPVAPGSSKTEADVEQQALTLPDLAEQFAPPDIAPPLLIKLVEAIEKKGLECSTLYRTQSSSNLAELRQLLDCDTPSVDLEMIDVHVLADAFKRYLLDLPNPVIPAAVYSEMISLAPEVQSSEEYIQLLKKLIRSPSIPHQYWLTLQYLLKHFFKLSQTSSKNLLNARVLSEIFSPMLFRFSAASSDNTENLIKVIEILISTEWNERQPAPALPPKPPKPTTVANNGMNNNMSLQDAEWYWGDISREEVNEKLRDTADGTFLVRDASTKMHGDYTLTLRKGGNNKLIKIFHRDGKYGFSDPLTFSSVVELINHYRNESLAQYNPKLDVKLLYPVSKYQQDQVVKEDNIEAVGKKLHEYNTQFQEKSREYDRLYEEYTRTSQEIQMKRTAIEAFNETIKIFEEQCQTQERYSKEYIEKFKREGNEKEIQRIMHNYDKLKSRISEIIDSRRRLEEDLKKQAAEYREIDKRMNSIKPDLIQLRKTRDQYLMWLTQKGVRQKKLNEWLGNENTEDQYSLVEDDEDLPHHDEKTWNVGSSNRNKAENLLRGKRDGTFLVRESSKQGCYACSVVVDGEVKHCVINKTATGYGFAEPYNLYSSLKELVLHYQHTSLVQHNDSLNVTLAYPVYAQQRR

[11] = system: AKT (S473) phosphorylation; assay: AKT; type: cell-based, human
U1242 cells [12] = assay: Invasion through matrigel inserts, U1242; type: cell-based; conditions: Homo sapiens, 48 h, read-out: inhibition of invasion
γ-H2AX = assay: IR-induced γ-H2AX, western blot, U1242 cells; type: cell-based, human; conditions: U1242, 3 μM, 5 Gy, especially at times ≤15 min
[13] = system: panel of 229 protein kinases; assay: Millipore KinaseProfiler panel; type: biochemical; conditions: 1 μM; Table S1
U1242 cells [14] = assay: Scratch; type: cell-based, human
PI3K (p110δ/p85α) = PI3K (p110δ/p85α) (Homo sapiens, UniProt O00329); assay: PI3-Kinase HTRF assay; type: biochemical; conditions: read-out: PI3K (p110δ/p85α) inhibited
Sequence of PI3K (p110δ/p85α) (O00329 whole entry): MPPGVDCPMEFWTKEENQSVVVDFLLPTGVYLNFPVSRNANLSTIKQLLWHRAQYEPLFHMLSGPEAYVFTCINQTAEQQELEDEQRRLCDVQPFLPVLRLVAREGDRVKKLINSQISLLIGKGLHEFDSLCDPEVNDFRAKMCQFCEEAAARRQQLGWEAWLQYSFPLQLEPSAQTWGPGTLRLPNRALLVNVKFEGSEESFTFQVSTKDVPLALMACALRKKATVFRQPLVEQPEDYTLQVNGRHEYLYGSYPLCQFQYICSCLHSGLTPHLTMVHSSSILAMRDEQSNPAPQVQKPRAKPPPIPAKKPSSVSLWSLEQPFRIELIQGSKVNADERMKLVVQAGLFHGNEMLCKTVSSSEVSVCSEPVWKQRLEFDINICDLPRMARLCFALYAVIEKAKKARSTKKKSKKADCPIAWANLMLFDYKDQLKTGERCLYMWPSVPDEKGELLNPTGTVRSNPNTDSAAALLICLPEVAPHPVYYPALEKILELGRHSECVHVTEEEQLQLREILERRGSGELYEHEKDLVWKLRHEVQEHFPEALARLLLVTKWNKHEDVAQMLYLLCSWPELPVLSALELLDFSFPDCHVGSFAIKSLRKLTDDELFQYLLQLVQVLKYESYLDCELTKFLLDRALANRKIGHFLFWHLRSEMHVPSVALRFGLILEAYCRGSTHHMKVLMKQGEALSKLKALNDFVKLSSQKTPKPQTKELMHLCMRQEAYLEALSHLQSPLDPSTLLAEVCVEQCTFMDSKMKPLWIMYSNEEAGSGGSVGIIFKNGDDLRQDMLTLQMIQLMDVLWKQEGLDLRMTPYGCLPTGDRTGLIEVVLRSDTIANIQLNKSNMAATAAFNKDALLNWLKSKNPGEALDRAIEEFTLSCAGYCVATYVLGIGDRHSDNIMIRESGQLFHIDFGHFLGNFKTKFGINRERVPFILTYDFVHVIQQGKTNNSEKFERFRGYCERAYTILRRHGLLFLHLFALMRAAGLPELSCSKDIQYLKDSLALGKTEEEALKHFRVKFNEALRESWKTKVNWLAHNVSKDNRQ
Sequence of PI3K (p110δ/p85α) (P27986 whole entry partner): as the sequence (P27986 whole entry partner) above

[15] = system: h-TERT-immortalized A-T fibroblasts; assay: Radiosurvival, Trypan blue/FACS assay, A-T fibroblasts; type: cell-based, human; conditions: 10 μM, 7 days post-IR
[16] = system: h-TERT-immortalized normal fibroblasts; assay: Radiosurvival, Trypan blue/FACS assay, normal fibroblasts; type: cell-based, human; conditions: 10 μM, 7 days post-IR
U1242 cells [17] = assay: Cell growth, AlamarBlue, U1242; type: cell-based, human; conditions: U1242, 3 μM, over a 5 day period
[18] = system: AKT (S473) phosphorylation; assay: Insulin-stimulated AKT phosphorylation, A-T fibroblasts; type: cell-based, human; conditions: A-T cells, in response to insulin
U87 cells [19] = assay: Radiosurvival, Trypan blue/FACS assay, U87; type: cell-based, human; conditions: U87, 3 μM, 4 Gy, alone

For `O=c1cc(-c2cccc3c2Sc2ccccc2S3)oc(N2CCOCC2)c1` [KU-55933, reference compound], which “specificity using a panel of 60 protein kinases” value [1] is on record?
Its value is “highly specific for the ATM kinase”.

What about the “effect on radiation-induced AKT T308 phosphorylation” value (AKT T308 phosphorylation) of the same compound?
The value was “attenuated”.

And the “effect on phosphorylation of (S9) GSK3β” value [2]?
The value was “reduced”.

And the “inhibition of IR-induced p53 (S15) phosphorylation” value (“inhibition of IR-induced p53” below) ([3]; U87, 3 μM, 10 Gy)?
Its value is “not at 3 μM”.

And the “inhibition of IR-induced p53” value ([3]; U87, 10 μM, 10 Gy)?
Its value is “completely inhibited”.

What about the “effect on phosphorylation of (S136) BAD” value [4] of the same compound?
The value was “reduced”.

What about the γ-H2AX levels (γ-H2AX (S139); U87, 10 μM, 1 h after irradiation) of the same compound?
Its γ-H2AX levels is “only partly reduced”.

Which “inhibition of p53 phosphorylation” value (p53 phosphorylation) does the source give for `C[C@@H]1CN(CC(=O)Nc2ccc3c(c2)Cc2cccc(-c4cc(=O)cc(N5CCOCC5)o4)c2S3)C[C@H](C)O1` [KU-60019, 2-((2R, 6S)-2,6-Dimethyl-morpholin-4-yl)-N-[5-(6-morpholin-4-yl-4-oxo-4H-pyran-2-yl)-9H-thioxanthen-2-yl]-acetamide] here?
The value was “completely inhibited”.

And the inhibition at 1 µM (PI3K (p120γ))?
The inhibition at 1 µM was 3%.

And the mTOR inhibition (mTOR)?
Its mTOR inhibition is “not inhibited”.

What about the radiosensitization (U1242 cells [5]; U1242, 3 μM, 4 days post-IR, level between that of U87 cells treated with 1 and 10 μM) of the same compound?
The radiosensitization was “radiosensitized”.

What about the “inhibition of radiation-induced CHK2 phosphorylation (T68)” value [6] of the same compound?
Its value is “completely inhibited”.

What about the “reduction of AKT phosphorylation” value [7] of the same compound?
Its value is ~ 45%.

What about the “effect on phosphorylation of (S9) GSK3β” value [2] of the same compound?
The value was “reduced”.

What about the inhibition at 3 µM (U87 cells [8]) of the same compound?
The inhibition at 3 µM was ~60%.

What about the “inhibition of IR-induced p53” value ([3]; U87, 1 μM, 10 Gy) of the same compound?
The value was “partial inhibited”.

What about the “p53 (S15) phosphorylation blocked” value ([3]; U87, 1 μM, after IR) of the same compound?
The value was > 70%.

What about the “inhibition of p53 phosphorylation” value ([3]; U87, 3 μM, 10 Gy, 15 min post-IR) of the same compound?
The value was “completely inhibited”.

And the “inhibition of IR-induced p53” value ([3]; U87, 3 μM, 10 Gy)?
The value was “completely inhibited”.

And the “effect on phosphorylation of (S136) BAD” value [4]?
The value was “reduced”.

What about the inhibition at 10 µM (U87 cells [9]) of the same compound?
The inhibition at 10 µM was ≥ 70%.

And the “effect on basal and radiation-induced AKT S473 phosphorylation” value [10]?
Its value is “almost completely abrogated”.

And the inhibition at 1 µM (PI3K (p110β/p85α))?
Its inhibition at 1 µM is 9%.

What about the “effect on radiation-induced increase in phospho-AKT (S473)” value ([11]; U87, 3 μM, 5 Gy) of the same compound?
Its value is “almost completely blocked”.

And the “earliest time of effect on S473 dephosphorylation after addition of drug” value ([11]; U87, 3 μM, drug alone)?
Its value is 5 min.

And the “reduction in AKT phosphorylation” value ([11]; U87, insulin-stimulated)?
The value was ~ 50%.

And the “reduction of basal AKT S473 phosphorylation” value ([11]; pooled data from several independent experiments (Fig. S1A))?
Its value is 70%.

What about the inhibition at 3 µM (U1242 cells [12]) of the same compound?
Its inhibition at 3 µM is ~60%.

What about the “inhibition of γ-H2AX” value (γ-H2AX) of the same compound?
Its value is “partially inhibited”.

And the “non-specific target effects against a panel of 229 protein kinases” value [13]?
The value was “little to no non-specific target effects”.

What about the inhibition at 3 µM (U1242 cells [14]; Homo sapiens, read-out: inhibition of migration (scratch assay)) of the same compound?
Its inhibition at 3 µM is ≥ 50%.

And the “rate of gap closure slower than untreated” value (U1242 cells [14]; U1242, 3 μM, at 10 h)?
Its value is 50%.

And the inhibition at 1 µM (PI3K (p110δ/p85α))?
Its inhibition at 1 µM is 27%.

And the radiosensitization [15]?
The radiosensitization was “not radiosensitized”.

And the radiosensitization [16]?
The radiosensitization was “radiosensitized”.

What about the suppression of growth (U1242 cells [17]) of the same compound?
Its suppression of growth is ~ 40%.

And the “effect on S473 phosphorylation” value [18]?
Its value is “did not affect”.

What about the γ-H2AX levels (γ-H2AX (S139); U87, 3 μM, 15 min) of the same compound?
The γ-H2AX levels was “reduced significantly”.

And the “effect on H2AX phosphorylation” value (γ-H2AX (S139); U87, 10 Gy, 1 h after irradiation)?
The value was “little to no effect”.

With `C=C1[C@@H](O)[C@@H]2O[C@]3(CC[C@H](/C=C/[C@@H](C)[C@@H]4CC(C)=C[C@@]5(O[C@H](C[C@@](C)(O)C(=O)O)CC[C@H]5O)O4)O3)CC[C@H]2O[C@@H]1[C@@H](O)C[C@H](C)[C@H]1O[C@@]2(CCCCO2)CC[C@H]1C` [OA, okadaic acid, reference compound] as the compound, how does the “increase of AKT S473 phosphorylation compared to untreated control” value ([11]; U87, OA by itself) read?
Its value is > 2 fold.

What about the “reduction of the effect of KU-60019 on S473 phosphorylation” value ([11]; U87, ≥30 nM OA with KU-60019 3 μM, 1 h) of the same compound?
Its value is > 50%.

Which effect on radiosurvival (U1242 cells [5]; U1242, alone (Fig. S5)) does the source give for `O=C(NOCC1CC1)c1ccc(F)c(F)c1Nc1ccc(I)cc1Cl` [PD184352, reference compound] here?
The effect on radiosurvival was “slightly radioprotective”.

And the “effect on IR-induced killing” value (U87 cells [19])?
The value was “small but significant effect”.
